Legend:
Assay type in all cases: in vivo
southern crabgrass [1] = assay: Test Example 4: herbicidal effect test by treatment of leave and stem in dry field farming (seven days after seeding); settings: 120 g/10a active ingredient; emulsion sprayed seven days after seeding; evaluated 14 days after treatment
Procedure: (§1) This test was conducted in a double system per one agent solution concentration area, and the herbicidal rates (%) were determined by the following equation (Math. 1) on 14 days after the treatment with the agents. Herbicidal Rate (%)={1-(Average Dry Weight (g) of Plant of Treated Area)/(Average Dry Weight (g) of Plant of Untreated Area)}×100 [Math. 1]
(§2) Herbicidal Effect Test by Treatment of Leave and Stem in Dry Field Farming
(§3) Pots with a size of 36 cm^2 were filled with a dry field farming soil (alluvium). The soil of the top layer of 1 cm and seeds of weeds, namely southern crabgrass, Echinochloa crus-galli, Chenopodium album and Amaranthus viridis, 20 seeds each, were evenly mixed, and the top layer was gently pressed. Emulsions prepared using the compounds in Table 6 below according to Formulation Example 5 were diluted with water seven days after seeding, and the water-diluted agent solutions were sprayed to the soil surfaces at a ratio of 100 liters per 10 ares. The converted amount of the applied active ingredient corresponded to 120 g per 10 ares. The herbicidal effects were evaluated by the same standard as that in Test Example 1 on 14 days after the treatment with the agents. […] The compound numbers in Table 6 are the same as those in Table 1 and Table 2 above.

Echinochloa crus-galli [2] = assay: as above; settings: 120 g/10a active ingredient; emulsion sprayed seven days after seeding; evaluated 14 days after treatment
Procedure: as §1, §2, §3

Chenopodium album [3] = assay: as above; settings: 120 g/10a active ingredient; emulsion sprayed seven days after seeding; evaluated 14 days after treatment
Procedure: as §1, §2, §3

Amaranthus viridis [4] = assay: as above; settings: 120 g/10a active ingredient; emulsion sprayed seven days after seeding; evaluated 14 days after treatment
Procedure: as §1, §2, §3

Echinochloa crus-galli [5] = assay: Test Example 2: herbicidal effect test by treatment during growing period in paddy rice cultivation (seven days after seeding); settings: 120 g/10a active ingredient, assessed 14 days after treatment, dry weight vs untreated area
Summary of the method: (§4)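 Sow 30 seeds per species (0–1 cm) into puddled, fertilized paddy soil; keep flooded ~3 cm in greenhouse. Day 7 after seeding: drop water-diluted emulsion, 120 g a.i./10 ares. Harvest 14 d post-treatment; compare dry weight with untreated pots (duplicate).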

[6] = tested on: broad leaf weeds (Lindernia pyxidaria and Monochoria vaginalis); assay: as above; settings: 120 g/10a active ingredient, assessed 14 days after treatment, dry weight vs untreated area
Summary of the method: as §4

Scirpus juncoides [7] = assay: as above; settings: 120 g/10a active ingredient, assessed 14 days after treatment, dry weight vs untreated area
Summary of the method: as §4

southern crabgrass [8] = assay: Test Example 3: herbicidal effect test by treatment of dry field farming soil (one day after seeding); settings: 120 g/10a active ingredient, evaluated 14 days after treatment
Summary of the method: (§5)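 Weeds were seeded into the upper soil layer of alluvial field soil and, one day afterwards, the soil surface was sprayed with water-diluted emulsion delivering 120 g active ingredient per 10 ares. Mean plant dry weight relative to untreated pots after 14 days gave the herbicidal rate, tested in duplicate.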

Echinochloa crus-galli [9] = assay: as above; settings: 120 g/10a active ingredient, evaluated 14 days after treatment
Summary of the method: as §5

Chenopodium album [10] = assay: as above; settings: 120 g/10a active ingredient, evaluated 14 days after treatment
Summary of the method: as §5

Amaranthus viridis [11] = assay: as above; settings: 120 g/10a active ingredient, evaluated 14 days after treatment
Summary of the method: as §5

Echinochloa crus-galli [12] = assay: Test Example 1: herbicidal effect test by treatment of rice paddy soil (immediately after seeding); settings: 120 g/10a active ingredient, dry weight vs untreated area, 14 days after treatment
Summary of the method: (§6)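 Pre-emergence paddy water application, 120 g a.i./10 ares, applied immediately post-seeding into ~3 cm flood; glasshouse; duplicate pots; dry weight at 14 d → % inhibition = (1 − treated/untreated) × 100.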

[13] = tested on: broad leaf weeds (Lindernia pyxidaria and Monochoria vaginalis); assay: as above; settings: 120 g/10a active ingredient, dry weight vs untreated area, 14 days after treatment
Summary of the method: as §6

Scirpus juncoides [14] = assay: as above; settings: 120 g/10a active ingredient, dry weight vs untreated area, 14 days after treatment
Summary of the method: as §6

Compound	herbicidal effect (herbicidal rate), southern crabgrass (southern crabgrass [1]) [%]	herbicidal effect (herbicidal rate), Echinochloa crus-galli (Echinochloa crus-galli [2]) [%]	herbicidal effect (herbicidal rate), Chenopodium album (Chenopodium album [3]) [%]	herbicidal effect (herbicidal rate), Amaranthus viridis (Amaranthus viridis [4]) [%]	Herbicidal rate (%) Echinochloa crus-galli (Echinochloa crus-galli [5]) [%]	Herbicidal rate (%) Lindernia pyxidaria [6] [%]	Herbicidal rate (%) Monochoria vaginalis [6] [%]	Herbicidal rate (%) Scirpus juncoides (Scirpus juncoides [7]) [%]	herbicidal rate, southern crabgrass (southern crabgrass [8]) [%]	herbicidal rate, Echinochloa crus-galli (Echinochloa crus-galli [9]) [%]	herbicidal rate, Chenopodium album (Chenopodium album [10]) [%]	herbicidal rate, Amaranthus viridis (Amaranthus viridis [11]) [%]	Herbicidal rate (%) Echinochloa crus-galli (Echinochloa crus-galli [12]) [%]	Herbicidal rate (%) Lindernia pyxidaria [13] [%]	Herbicidal rate (%) Monochoria vaginalis [13] [%]	Herbicidal rate (%) Scirpus juncoides (Scirpus juncoides [14]) [%]
CCC(C)Cn1oc(=O)c(Cc2ccccc2N(C(=O)OCc2ccccc2)S(=O)(=O)C(F)(F)F)c1C (single isomer, unassigned) [1-789 (TLC bottom)]	50	50	40	60	100	60	90	90	60	90	80	70	100	90	90	90
COCC(C)n1oc(=O)c(Cc2ccccc2N(C(=O)OCC(C)C)S(=O)(=O)C(F)(F)F)c1C (stereo not drawn) [Compound 1-675]	90	90	40	40	90	90	90	90	90	90	90	90	90	90	90	90
CCC(C)n1oc(=O)c(Cc2ccccc2N(C(=O)C2CC2)S(=O)(=O)C(F)(F)F)c1C (stereo not drawn) [Compound 1-404]	90	90	40	40	90	90	90	90	90	90	90	90	90	90	90	90
CCCC(C)n1oc(=O)c(Cc2ccccc2N(C(C)=O)S(=O)(=O)C(F)(F)F)c1C (stereo not drawn) [Compound 1-299]	80	90	90	40	100	60	70	90	80	90	40	70	100	100	80	90
Cc1c(Cc2ccccc2N(S(=O)(=O)C(F)(F)F)S(=O)(=O)C(F)(F)F)c(=O)on1CCOCC(C)C [Compound 1-1000]	40	60	0	40	90	40	70	90	80	60	40	40	100	80	90	100
COCCOC(=O)N(c1ccccc1Cc1c(C)n(C(C)c2ccccc2)oc1=O)S(=O)(=O)C(F)(F)F (stereo not drawn) [Compound 1-736]	90	90	40	40	90	90	90	90	90	90	90	90	90	90	90	90
Cc1c(Cc2ccccc2N(C(=O)C(C)C)S(=O)(=O)C(F)(F)F)c(=O)on1C(C)c1ccccc1 (stereo not drawn) [Compound 1-337]	90	90	40	40	90	90	90	90	90	90	90	90	90	90	90	90
Cc1c(Cc2ccccc2N(S(C)(=O)=O)S(=O)(=O)C(F)(F)F)c(=O)on1CC(C)(C)C [Compound 1-893]	90	90	40	40	90	90	90	90	90	90	90	90	90	90	90	90
Cc1c(Cc2ccccc2NS(=O)(=O)C(F)(F)F)c(=O)on1CC(C)c1ccccc1 (stereo not drawn) [Compound 1-219]	60	90	0	40	90	40	70	90	80	90	40	90	100	90	80	90

— patent US11109593B2, “Isoxazolin-5-one derivative and herbicide containing same as active ingredient” (HOKKO CHEMICAL INDUSTRY CO., LTD., priority 2017, dated 2021)
